For one assay, the target named is T1, TLR 3 ectodomain (Homo sapiens, UniProt O15455).
T1 construct: purchased R&D system
T1 sequence (O15455 24-704 limits assumed): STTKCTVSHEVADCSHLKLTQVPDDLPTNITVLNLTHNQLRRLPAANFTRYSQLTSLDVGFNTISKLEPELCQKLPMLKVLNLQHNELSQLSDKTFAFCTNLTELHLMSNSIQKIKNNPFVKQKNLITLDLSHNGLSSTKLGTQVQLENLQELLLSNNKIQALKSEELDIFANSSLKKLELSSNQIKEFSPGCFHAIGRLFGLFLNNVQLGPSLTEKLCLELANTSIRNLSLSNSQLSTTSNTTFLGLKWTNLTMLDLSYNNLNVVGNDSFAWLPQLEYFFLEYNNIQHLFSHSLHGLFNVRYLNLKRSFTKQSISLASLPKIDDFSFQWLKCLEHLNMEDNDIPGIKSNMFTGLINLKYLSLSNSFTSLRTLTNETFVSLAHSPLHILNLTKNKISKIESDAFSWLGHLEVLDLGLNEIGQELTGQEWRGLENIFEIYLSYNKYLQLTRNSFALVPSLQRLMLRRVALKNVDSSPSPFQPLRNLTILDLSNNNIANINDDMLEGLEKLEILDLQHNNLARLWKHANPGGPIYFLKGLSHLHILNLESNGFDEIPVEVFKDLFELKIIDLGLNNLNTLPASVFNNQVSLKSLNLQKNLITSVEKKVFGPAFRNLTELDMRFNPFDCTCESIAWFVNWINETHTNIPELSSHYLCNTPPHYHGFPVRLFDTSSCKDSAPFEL
The experiment in a line: Binding of TLR 3 ectodomain to solid phase phospholipid. Particulars: for binding to TLR 3 ectodomain: 0.625 nmol lipid per well, 6 μg/mL TLR 3 protein; for concentration-dependent binding of TLR 3: binding curves. As for the experimental part: Lipids were dried under a stream of nitrogen and resuspended i 100% ethanol, and 0.625 nmol was added in a 40 μL volume to each well of a half-area, 96-well plate. The solvent was evaporated under warm air for 90 minutes. 120 μL of blocking solution (150 mM NaCl, 20 mM sodium acetate pH 5.5 containing 3% BSA w/v) was added to each well and incubated for 1 hour at room temperature. Wells were then washed with (150 mM NaCl, 20 mM sodium acetate pH 5.5) followed by the addition of 40 μL of 6 μg/mL TLR 3 ectodomain in blocking solution to each well and the plate was incubated at 37° C. for 1 hour. The wells were washed 3 times and 40 μL of human TLR 3 primary antibody, diluted 1:500, was added and incubated overnight at 4° C. After washing out the primary antibody with (150 mM NaCl, 20 mM Tris pH 7.4), a secondary (rabbit anti-goat) antibody conjugated to horseradish peroxidase (HRP), diluted 1:1000, was added in 40 μL aliquots to each well and incubated at 37° C. for 1 hour. After washing, the peroxidase activity was detected with the substrate o-phenylenediamine and the absorbance read at 490 nm to detect degree of binding.
Solid phase lipid binding to fluid phase TLR 3 ectodomain was examined as a potential explanation for the differences in activity. Lipids were dried under a stream of nitrogen and resuspended in 100% ethanol. 0.625 nmol of lipid was plated per well in a 96-well plate and dried for 90 minutes. BSA was used to block non-specific binding and then TLR 3 protein was added to each well at 6 μg/mL and incubated at 37° C. for one hour. After washing out unbound protein, primary antibody was added for detection of TLR 3 and incubated overnight at 4° C. The following day secondary antibody conjugated to HRP was added to the wells and the peroxidase reaction activated by o-phenylenediamine. The absorbance was read at 490 nm to detect binding.

The next assay has as its target T2, TLR 5 (Homo sapiens, UniProt O60602).
T2 construct: endogenous in cells; host or cells: BEAS2B (ATCC)
Briefly: Flagellin-induced IL-8 in BEAS2B cells (TLR 5 antagonism). Particulars: lipid alone. Format: cell-based. How it is done:
Human bronchial epithelial cells, BEAS2B, were obtained from ATCC and maintained in bronchial epithelial cell growth medium (BEGM), supplemented with the BulleKit from Lonza in accordance with protocol (M. H. Hudy, S. et al., “Cigarette smoke modulates rhinovirus-induced airway epithelial cell chemokine production.,” Eur. Respir. J., vol. 35, no. 6, pp. 1256-63, June 2010). Cells were cultured at 37 C with 5% carbon dioxide:95% air atmosphere maintained within the incubator. Experiments were conducted in 48-well plates and cells were seated at a density of 5×10^4 per well. After 24 hours, the BEGM medium was replaced with RPMI-1640 medium and incubated for an additional 24 hours. Liposomes were prepared as described above. […] Subsequently, media were collected, diluted and an enzyme-linked immunosorbent assay (ELISA) was performed to quantify IL-8 release by cells.
TLR 5 is an extracellular member of the TLR family. […] To address whether xylitol analogs antagonize TLR activation due to disruption or destruction of all membrane signaling, PX lipids were assessed at the highest concentration used in experiments reported in this example in human bronchial epithelial cells, BEAS2B, for antagonism of flagellin activation of TLR 5. The cytokine, IL-8, was quantified as an output of TLR 5 activation.

T2 sequence (O60602 21-858): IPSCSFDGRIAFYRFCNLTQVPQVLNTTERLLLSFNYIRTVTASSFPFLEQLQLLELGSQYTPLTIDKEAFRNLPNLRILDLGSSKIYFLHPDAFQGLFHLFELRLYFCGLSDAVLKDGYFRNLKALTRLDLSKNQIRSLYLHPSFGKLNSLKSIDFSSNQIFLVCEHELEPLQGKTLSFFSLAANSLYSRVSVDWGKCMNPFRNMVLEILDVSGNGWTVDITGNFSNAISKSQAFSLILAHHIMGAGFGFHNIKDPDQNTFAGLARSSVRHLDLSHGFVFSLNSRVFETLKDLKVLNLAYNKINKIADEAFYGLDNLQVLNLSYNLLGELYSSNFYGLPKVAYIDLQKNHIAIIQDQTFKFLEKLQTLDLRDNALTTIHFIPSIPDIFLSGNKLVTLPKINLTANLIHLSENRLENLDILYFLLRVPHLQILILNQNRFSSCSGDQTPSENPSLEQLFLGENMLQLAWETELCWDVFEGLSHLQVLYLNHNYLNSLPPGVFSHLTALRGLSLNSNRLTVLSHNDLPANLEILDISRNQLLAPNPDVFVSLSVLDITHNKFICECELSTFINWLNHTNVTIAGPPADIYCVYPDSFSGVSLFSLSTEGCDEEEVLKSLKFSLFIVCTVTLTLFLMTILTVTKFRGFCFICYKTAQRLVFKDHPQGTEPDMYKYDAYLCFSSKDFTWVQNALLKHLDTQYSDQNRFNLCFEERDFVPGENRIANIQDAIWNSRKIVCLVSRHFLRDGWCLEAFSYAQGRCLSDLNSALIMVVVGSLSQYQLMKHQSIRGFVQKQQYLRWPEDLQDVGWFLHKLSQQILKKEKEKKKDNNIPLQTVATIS

Take `CCCCCCCCCCCCCCOC[C@H](COP(=O)(O)OCC(O)C(O)C(O)CO)OCCCCCCCCCCCCCC` (mixture of isomers) [14:0 DEPX, sn-1-O-myristyl, sn-2-O-myristyl sn-3 glycerol phosphoxylitol]: the “binding to TLR 3 ectodomain” value at TLR 3 ectodomain is “all xylitol analogs except 14:0 DEPX demonstrated specific binding”.

As for `CCCCCCC=CCCCCCCCC(=O)OCC(COP(=O)(O)OCC(O)C(O)C(O)CO)OC(=O)CCCCCCCC=CCCCCCC` (mixture of isomers) [16:1 DPPX, sn-1-palmitoleoyl, sn-2-palmitoleoyl sn-3 glycerol phosphoxylitol], on TLR 5, the “IL-8 secretion in the absence of Flagellin stimulus” value is reported as “stimulate IL-8 secretion over that of the control”. In addition, the “concentration-dependent binding of TLR 3” value at TLR 3 ectodomain is “significantly different from POPC”.

Regarding `CCCCCCCCC=CCCCCCCCCOCC(COP(=O)(O)OCC(O)C(O)C(O)CO)OCCCCCCCCC=CCCCCCCCC` (mixture of isomers) [18:1 DEPX, sn-1-O-octadecenyl, sn-2-O-octadecenyl sn-3 glycerol phosphoxylitol], at TLR 3 ectodomain, the “binding to TLR 3 ectodomain” value is given as “not statistically different from POPG” and the “concentration-dependent binding of TLR 3” value is recorded as “significantly different from POPC”.

As for `CCCCCC=CCC=CCCCCCCCC(=O)OCC(COP(=O)(O)OCC(O)C(O)C(O)CO)OC(=O)CCCCCCCC=CCC=CCCCCC` (mixture of isomers) [18:2 DLPX, sn-1-linoleoyl, sn-2-linoleoyl sn-3 glycerol phosphoxylitol], on TLR 5, the “IL-8 secretion in the absence of Flagellin stimulus” value is “stimulate IL-8 secretion over that of the control”. Besides, the “binding to TLR 3 ectodomain” value on TLR 3 ectodomain is recorded as “not statistically different from POPG”.

As for `CCCCCCCC/C=C\CCCCCCCC(=O)O[C@H](COC(=O)CCCCCCCCCCCCCCC)COP(=O)(O)OCC(O)CO` (stereo partly drawn) [POPG, palmitoyl-oleoyl-phosphatidylglycerol, reference compound], at TLR 3 ectodomain, the “binding to TLR 3 ectodomain” value is “specific binding to TLR 3 ectodomain” and the “concentration-dependent binding of TLR 3” value is listed as “significantly different from POPC”.

The values are drawn from patent US12472193B2, “Methods and compositions for treating and preventing respiratory related diseases and conditions with xylitol-headgroup lipid analogs” (National Jewish Health, priority 2017, dated 2025).
